The values below come from ChEMBL document CHEMBL5113478, “7-Azaindole, 2,7-diazaindole, and 1H-pyrazole as core structures for novel anticancer agents with potential chemosensitizing properties” (Eur J Med Chem, 2022).

Assay [1] deals with 1321N1. Nature of the assay: Cytotoxicity against human 1321N1 cells assessed as reduction in cell viability at 15 uM incubated for 48 hrs by MTT assay. It counts as functional, cell-based. (In general: Tetrazolium assays rely on reduction of a dye to a coloured formazan, in cell work by metabolically active cells.)
The test system of assay [2] is A549. Nature of the assay: Antiproliferative activity against human A549 cells assessed as […] cell proliferation at 10 uM incubated for 48 hrs by WST-1 assay relative to control. Format: functional.
Assay [3] relates to MCF7. Nature of the assay: Antiproliferative activity against human MCF7 cells assessed as […] cell proliferation at 10 uM incubated for 48 hrs in presence of 10 uM of CDDP by WST-1 assay relative to control. Format: functional.
Assay [4] has as its system MOLT-4. Nature of the assay: Antiproliferative activity against human MOLT-4 cells assessed as […] cell proliferation at 10 uM incubated for 48 hrs by WST-1 assay relative to control. It counts as functional.
The subject of assay [5] is MCF7. Nature of the assay: Antiproliferative activity against human MCF7 cells assessed as […] cell proliferation at 10 uM incubated for 48 hrs by WST-1 assay relative to control. It counts as functional.
Assay [6] concerns A2780. Nature of the assay: Antiproliferative activity against human A2780 cells assessed as […] cell proliferation at 10 uM incubated for 48 hrs by WST-1 assay relative to control. Format: functional.
Assay [7] has as its system Jurkat. Nature of the assay: Antiproliferative activity against human Jurkat cells assessed as […] cell proliferation at 10 uM incubated for 48 hrs by WST-1 assay relative to control. It counts as functional.
A further assay deals with GBM. Nature of the assay: Cytotoxicity against patient-derived human GBM cells assessed as reduction in cell viability at 15 uM incubated for 48 hrs by MTT assay. It counts as functional.
The test system of assay [8] is PANC-1. Nature of the assay: Antiproliferative activity against human PANC-1 cells assessed as […] cell proliferation at 10 uM incubated for 48 hrs by WST-1 assay relative to control. Format: functional.
Assay [9] is described as follows: Chemo-sensitizing activity against human 1321N1 cells at 15 uM incubated for 48 hrs in presence of TMZ by MTT assay relative to control. Format: functional.
Assay [10] has as its system A2780. Nature of the assay: Antiproliferative activity against human A2780 cells assessed as […] cell proliferation at 10 uM incubated for 48 hrs in presence of 2 uM of CDDP by WST-1 assay relative to control. Format: functional.
The subject of assay [11] is SAOS-2. Nature of the assay: Antiproliferative activity against human SAOS-2 cells assessed as […] cell proliferation at 10 uM incubated for 48 hrs in presence of 15 uM of CDDP by WST-1 assay relative to control. Format: functional.
Assay [12] relates to SAOS-2. Nature of the assay: Antiproliferative activity against human SAOS-2 cells assessed as […] cell proliferation at 10 uM incubated for 48 hrs by WST-1 assay relative to control. It counts as functional.
Assay [13] relates to PANC-1. Nature of the assay: Antiproliferative activity against human PANC-1 cells assessed as […] cell proliferation at 10 uM incubated for 48 hrs in presence of 15 uM of CDDP by WST-1 assay relative to control. It counts as functional.
The test system of assay [14] is HT-29. Nature of the assay: Antiproliferative activity against human HT-29 cells assessed as […] cell proliferation at 10 uM incubated for 48 hrs by WST-1 assay relative to control. It counts as functional.
Assay [15] relates to HeLa. Nature of the assay: Antiproliferative activity against human HeLa cells assessed as […] cell proliferation at 10 uM incubated for 48 hrs in presence of 15 uM of CDDP by WST-1 assay relative to control. It counts as functional.
For assay [16], the system named is HeLa. Nature of the assay: Antiproliferative activity against human HeLa cells assessed as […] cell proliferation at 10 uM incubated for 48 hrs by WST-1 assay relative to control. Format: functional.
Assay [17] concerns A549. Nature of the assay: Antiproliferative activity against human A549 cells assessed as […] cell proliferation at 10 uM incubated for 48 hrs in presence of 15 uM of CDDP by WST-1 assay relative to control. It counts as functional.
Assay [18] has as its system MOLT-4. Nature of the assay: Antiproliferative activity against human MOLT-4 cells assessed as […] cell proliferation at 10 uM incubated for 48 hrs in presence of 2 uM of CDDP by WST-1 assay relative to control. Format: functional.
Assay [19] has as its system Jurkat. Nature of the assay: Antiproliferative activity against human Jurkat cells assessed as […] cell proliferation at 10 uM incubated for 48 hrs in presence of 2 uM of CDDP by WST-1 assay relative to control. It counts as functional.
Assay [20] has as its system HT-29. Nature of the assay: Antiproliferative activity against human HT-29 cells assessed as […] cell proliferation at 10 uM incubated for 48 hrs in presence of 15 uM of CDDP by WST-1 assay relative to control. Format: functional.
For assay [21], the target named is Serine/threonine-protein kinase ATR (Homo sapiens, UniProt Q13535). Nature of the assay: Binding affinity to ATR (unknown origin) assessed as inhibition constant.
Sequence of Serine/threonine-protein kinase ATR (Q13535 whole entry): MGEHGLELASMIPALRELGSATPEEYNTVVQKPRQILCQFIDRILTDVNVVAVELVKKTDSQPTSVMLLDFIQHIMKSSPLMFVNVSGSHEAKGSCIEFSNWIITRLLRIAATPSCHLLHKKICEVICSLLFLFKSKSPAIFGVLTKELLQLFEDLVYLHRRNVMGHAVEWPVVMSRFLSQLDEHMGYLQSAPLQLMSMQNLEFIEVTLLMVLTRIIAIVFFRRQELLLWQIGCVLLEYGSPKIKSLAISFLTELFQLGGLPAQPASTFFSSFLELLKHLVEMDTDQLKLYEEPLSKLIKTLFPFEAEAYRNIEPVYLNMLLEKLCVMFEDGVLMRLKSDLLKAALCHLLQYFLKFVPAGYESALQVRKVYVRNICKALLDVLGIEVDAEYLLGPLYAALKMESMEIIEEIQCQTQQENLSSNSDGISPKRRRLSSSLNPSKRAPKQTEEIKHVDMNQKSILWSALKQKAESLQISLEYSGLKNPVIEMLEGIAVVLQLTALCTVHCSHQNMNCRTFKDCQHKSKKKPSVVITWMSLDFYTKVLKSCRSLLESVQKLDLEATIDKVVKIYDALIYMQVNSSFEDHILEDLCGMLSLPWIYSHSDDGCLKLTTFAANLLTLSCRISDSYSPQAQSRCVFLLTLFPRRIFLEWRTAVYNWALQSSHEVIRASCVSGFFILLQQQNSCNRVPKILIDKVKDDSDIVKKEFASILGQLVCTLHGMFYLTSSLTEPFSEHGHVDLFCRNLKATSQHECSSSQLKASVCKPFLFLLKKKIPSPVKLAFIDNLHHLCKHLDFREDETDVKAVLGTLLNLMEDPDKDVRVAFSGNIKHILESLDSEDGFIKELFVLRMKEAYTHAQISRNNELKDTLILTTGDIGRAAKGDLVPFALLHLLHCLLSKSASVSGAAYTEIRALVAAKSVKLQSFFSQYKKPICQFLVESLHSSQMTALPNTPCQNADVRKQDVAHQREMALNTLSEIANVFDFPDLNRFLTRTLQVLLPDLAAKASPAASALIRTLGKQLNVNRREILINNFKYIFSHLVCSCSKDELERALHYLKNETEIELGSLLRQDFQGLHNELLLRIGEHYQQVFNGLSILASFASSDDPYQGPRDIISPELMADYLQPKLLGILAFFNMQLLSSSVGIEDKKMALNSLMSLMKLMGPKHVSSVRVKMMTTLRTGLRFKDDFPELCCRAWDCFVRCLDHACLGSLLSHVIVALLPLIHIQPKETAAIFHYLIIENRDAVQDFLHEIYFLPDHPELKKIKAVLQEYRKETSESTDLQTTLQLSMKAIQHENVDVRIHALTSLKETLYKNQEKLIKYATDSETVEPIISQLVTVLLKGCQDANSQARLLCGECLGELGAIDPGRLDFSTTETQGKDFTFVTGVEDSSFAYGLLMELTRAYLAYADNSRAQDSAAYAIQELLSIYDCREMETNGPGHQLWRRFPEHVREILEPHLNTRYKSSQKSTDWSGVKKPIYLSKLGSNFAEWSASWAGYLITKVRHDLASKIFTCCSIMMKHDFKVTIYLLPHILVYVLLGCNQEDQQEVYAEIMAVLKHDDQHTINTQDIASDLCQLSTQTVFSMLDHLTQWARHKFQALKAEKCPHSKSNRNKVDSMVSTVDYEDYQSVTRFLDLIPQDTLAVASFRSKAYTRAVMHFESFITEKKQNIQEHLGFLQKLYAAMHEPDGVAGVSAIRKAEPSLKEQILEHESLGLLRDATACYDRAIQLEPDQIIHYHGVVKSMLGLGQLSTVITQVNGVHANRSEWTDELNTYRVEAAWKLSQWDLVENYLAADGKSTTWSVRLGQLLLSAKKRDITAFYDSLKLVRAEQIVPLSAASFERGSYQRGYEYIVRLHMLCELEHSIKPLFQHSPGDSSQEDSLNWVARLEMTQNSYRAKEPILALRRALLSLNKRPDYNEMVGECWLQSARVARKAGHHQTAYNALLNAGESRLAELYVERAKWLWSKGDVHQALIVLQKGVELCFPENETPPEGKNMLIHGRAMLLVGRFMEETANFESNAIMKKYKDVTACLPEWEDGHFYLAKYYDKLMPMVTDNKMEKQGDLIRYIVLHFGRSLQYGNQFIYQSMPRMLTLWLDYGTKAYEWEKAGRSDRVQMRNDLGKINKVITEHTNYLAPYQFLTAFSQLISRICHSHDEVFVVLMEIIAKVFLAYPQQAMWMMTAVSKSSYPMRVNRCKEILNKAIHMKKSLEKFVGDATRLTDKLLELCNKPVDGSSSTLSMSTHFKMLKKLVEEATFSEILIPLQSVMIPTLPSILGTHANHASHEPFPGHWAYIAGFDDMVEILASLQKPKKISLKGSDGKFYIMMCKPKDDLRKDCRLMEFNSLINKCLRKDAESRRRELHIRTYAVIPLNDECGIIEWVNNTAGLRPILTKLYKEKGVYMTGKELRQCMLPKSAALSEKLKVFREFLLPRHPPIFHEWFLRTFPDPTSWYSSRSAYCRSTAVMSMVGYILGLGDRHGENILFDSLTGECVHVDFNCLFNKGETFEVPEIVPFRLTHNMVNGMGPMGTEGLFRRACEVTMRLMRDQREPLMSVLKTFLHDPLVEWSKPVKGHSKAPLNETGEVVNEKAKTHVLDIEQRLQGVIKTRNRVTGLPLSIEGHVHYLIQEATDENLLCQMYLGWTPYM
The test system of assay [22] is Mast/stem cell growth factor receptor Kit (Homo sapiens), P10721 [V560G]. Nature of the assay: Inhibition of human cKit V560G mutant assessed as residual activity at 10 uM relative to control.
The target in assay [23] is Proto-oncogene tyrosine-protein kinase receptor Ret (Homo sapiens) (UniProt P07949). Nature of the assay: Inhibition of human Ret assessed as residual activity at 10 uM relative to control.
The next assay concerns the target ATR/ATRIP (Homo sapiens) (UniProt Q13535+Q8WXE1). Nature of the assay: Inhibition of human ATR/ATRIP assessed as residual activity at 10 uM relative to control. It counts as protein-complex assay.
Assay [24] addresses Vascular endothelial growth factor receptor 3 (Homo sapiens) (UniProt P35916). Nature of the assay: Inhibition of human FLT4 assessed as residual activity at 10 uM relative to control.
Assay [25] has as its target T1, Cytoplasmic tyrosine-protein kinase BMX (Homo sapiens) (UniProt P51813).
T1 sequence (whole entry): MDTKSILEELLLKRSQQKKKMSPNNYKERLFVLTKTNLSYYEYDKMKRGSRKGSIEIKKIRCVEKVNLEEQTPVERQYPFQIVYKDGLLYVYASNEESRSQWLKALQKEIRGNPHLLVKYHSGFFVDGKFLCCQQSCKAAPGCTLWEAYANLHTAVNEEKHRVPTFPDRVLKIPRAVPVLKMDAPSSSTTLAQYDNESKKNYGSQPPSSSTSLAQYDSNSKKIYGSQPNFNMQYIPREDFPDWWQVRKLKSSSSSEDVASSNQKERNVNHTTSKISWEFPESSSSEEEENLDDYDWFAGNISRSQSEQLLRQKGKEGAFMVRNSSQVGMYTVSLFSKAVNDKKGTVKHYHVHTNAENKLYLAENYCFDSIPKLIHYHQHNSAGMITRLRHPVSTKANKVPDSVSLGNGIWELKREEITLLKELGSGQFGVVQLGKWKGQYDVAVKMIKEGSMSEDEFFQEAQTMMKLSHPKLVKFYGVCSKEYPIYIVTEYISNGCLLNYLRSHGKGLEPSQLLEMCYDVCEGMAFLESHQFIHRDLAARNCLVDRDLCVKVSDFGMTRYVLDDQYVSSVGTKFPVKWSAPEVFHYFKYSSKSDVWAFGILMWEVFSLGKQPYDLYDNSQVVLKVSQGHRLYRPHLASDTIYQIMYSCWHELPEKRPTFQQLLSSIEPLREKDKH
Nature of the assay: Inhibition of human Bmx assessed as residual activity at 10 uM relative to control.

Assay [26] deals with T2, Aurora kinase A (Homo sapiens) (UniProt O14965).
T2 sequence (whole entry): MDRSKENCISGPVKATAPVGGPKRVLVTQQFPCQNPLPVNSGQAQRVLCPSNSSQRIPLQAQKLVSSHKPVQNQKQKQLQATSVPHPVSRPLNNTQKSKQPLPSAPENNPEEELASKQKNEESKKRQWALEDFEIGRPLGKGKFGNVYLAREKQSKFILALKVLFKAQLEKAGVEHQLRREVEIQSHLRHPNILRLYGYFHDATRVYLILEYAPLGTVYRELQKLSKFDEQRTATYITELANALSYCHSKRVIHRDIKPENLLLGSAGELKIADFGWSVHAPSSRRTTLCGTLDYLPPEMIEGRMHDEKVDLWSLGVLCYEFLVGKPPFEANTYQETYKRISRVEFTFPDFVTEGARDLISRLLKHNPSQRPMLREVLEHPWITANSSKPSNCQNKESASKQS
Nature of the assay: Inhibition of human Aurora-A assessed as residual activity at 10 uM relative to control.

The target of assay [27] is High affinity nerve growth factor receptor (Homo sapiens) (UniProt P04629). Nature of the assay: Inhibition of human TrkA assessed as residual activity at 10 uM relative to control.
Assay [28] deals with Vascular endothelial growth factor receptor 2 (Homo sapiens) (UniProt P35968). Nature of the assay: Inhibition of human KDR assessed as residual activity at 10 uM relative to control.
For assay [29], the target named is Vascular endothelial growth factor receptor 1 (Homo sapiens) (UniProt P17948). Nature of the assay: Inhibition of human FLT1 assessed as residual activity at 10 uM relative to control.
Assay [30] addresses Fibroblast growth factor receptor 2 (Homo sapiens) (UniProt P21802). Nature of the assay: Inhibition of human FGFR2 assessed as residual activity at 10 uM relative to control.
The target of assay [31] is Angiopoietin-1 receptor (Homo sapiens) (UniProt Q02763). Nature of the assay: Inhibition of human Tie2 assessed as residual activity at 10 uM relative to control.
Assay [32] concerns the target Protein kinase C alpha type (Homo sapiens) (UniProt P17252). Nature of the assay: Inhibition of human PKCalpha assessed as residual activity at 10 uM relative to control.
Assay [33] deals with Fibroblast growth factor receptor 3 (Homo sapiens) (UniProt P22607). Nature of the assay: Inhibition of human FGFR3 assessed as residual activity at 10 uM relative to control.
The subject of assay [34] is 1321N1. Nature of the assay: Chemo-sensitizing activity against human 1321N1 cells at 15 uM incubated for 48 hrs in presence of TMZ by MTT assay. It counts as functional, cell-based.

Activity calls are given as the source filed them. The rule behind the calls is not given here. Some results are limits rather than exact numbers.

Sequence of Vascular endothelial growth factor receptor 3 (Homo sapiens) (P35916 whole entry): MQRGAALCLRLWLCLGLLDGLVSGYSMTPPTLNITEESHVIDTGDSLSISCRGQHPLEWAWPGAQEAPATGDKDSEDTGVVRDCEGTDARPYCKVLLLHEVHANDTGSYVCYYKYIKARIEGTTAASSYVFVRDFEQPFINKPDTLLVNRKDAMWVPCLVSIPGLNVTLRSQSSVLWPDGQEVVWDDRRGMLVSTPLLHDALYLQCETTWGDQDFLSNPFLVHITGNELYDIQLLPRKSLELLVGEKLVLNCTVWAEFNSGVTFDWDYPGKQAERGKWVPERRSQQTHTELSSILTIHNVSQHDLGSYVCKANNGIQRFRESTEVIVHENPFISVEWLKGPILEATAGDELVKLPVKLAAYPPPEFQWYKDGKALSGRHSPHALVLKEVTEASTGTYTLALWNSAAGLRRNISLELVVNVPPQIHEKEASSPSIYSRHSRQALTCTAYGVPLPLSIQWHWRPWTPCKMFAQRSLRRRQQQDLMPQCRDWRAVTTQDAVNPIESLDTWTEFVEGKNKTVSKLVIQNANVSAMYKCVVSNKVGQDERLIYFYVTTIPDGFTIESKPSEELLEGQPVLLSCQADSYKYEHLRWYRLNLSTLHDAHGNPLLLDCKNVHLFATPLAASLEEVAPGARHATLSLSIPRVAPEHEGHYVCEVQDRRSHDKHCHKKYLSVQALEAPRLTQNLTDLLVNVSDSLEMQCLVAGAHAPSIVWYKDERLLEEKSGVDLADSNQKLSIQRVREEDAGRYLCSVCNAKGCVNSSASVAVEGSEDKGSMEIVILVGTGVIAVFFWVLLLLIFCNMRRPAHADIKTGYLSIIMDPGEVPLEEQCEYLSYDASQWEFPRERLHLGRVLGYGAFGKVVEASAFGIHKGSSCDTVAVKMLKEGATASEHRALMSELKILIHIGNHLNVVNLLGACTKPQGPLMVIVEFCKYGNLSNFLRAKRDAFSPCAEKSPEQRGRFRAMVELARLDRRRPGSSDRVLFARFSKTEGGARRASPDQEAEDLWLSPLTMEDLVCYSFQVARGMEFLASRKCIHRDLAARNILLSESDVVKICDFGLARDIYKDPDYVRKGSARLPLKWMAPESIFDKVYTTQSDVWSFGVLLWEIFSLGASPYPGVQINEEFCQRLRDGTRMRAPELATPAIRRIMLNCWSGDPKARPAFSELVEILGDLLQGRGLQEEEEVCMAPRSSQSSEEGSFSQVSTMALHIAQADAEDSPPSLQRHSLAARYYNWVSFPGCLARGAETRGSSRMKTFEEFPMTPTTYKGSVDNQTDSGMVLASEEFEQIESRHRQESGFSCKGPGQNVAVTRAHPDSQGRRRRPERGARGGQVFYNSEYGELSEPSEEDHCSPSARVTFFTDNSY
Sequence of ATR/ATRIP (Homo sapiens) (Q13535 whole entry, looked up): as the sequence (Q13535 whole entry) above
Sequence of ATR/ATRIP (Homo sapiens) (Q8WXE1 whole entry, looked up): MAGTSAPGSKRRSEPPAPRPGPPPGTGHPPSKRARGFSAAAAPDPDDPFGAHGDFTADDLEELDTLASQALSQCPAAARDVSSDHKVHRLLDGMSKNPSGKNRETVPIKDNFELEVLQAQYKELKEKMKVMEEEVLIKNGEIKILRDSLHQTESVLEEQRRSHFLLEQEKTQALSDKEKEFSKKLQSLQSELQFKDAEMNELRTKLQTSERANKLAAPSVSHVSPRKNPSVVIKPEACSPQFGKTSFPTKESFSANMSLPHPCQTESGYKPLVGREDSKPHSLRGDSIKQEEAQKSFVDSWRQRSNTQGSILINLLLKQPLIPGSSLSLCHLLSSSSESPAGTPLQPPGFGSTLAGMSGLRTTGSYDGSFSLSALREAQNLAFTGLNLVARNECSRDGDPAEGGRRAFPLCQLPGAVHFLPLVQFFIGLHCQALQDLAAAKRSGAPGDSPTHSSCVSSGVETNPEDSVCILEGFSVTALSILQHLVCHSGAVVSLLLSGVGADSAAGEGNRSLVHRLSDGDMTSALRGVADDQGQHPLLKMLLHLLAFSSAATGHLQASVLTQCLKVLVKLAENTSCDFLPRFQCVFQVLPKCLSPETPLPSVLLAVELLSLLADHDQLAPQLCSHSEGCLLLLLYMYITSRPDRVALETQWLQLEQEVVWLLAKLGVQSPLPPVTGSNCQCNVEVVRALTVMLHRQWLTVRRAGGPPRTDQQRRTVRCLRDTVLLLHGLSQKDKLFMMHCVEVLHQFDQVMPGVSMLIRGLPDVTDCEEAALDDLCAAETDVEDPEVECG

In the case of `CC(C)S(=O)(=O)c1ccc(-c2cnc3[nH]cc(CN4CCC(c5ccccc5)CC4)c3c2)cc1`, the outcome in the assay with 1321N1 [1] and in the assay with GBM was Active. Further, the Activity in the assay on A549 [2] was 77%; in the assay on MCF7 [3], 46%; in the assay with MOLT-4 [4], 77%; with MCF7 [5], 77%; in the assay on A2780 [6], 77%; in the assay on Jurkat [7], 77%. For the same compound, the Activity was determined as 77% with PANC-1 [8]; 100% in assay [9]; 46% in the assay on A2780 [10]; 46% in the assay on SAOS-2 [11]; 77% in the assay with SAOS-2 [12]; 46% with PANC-1 [13]. Also, the Activity with HeLa [15] was 46%; in the assay on HeLa [16], 77%; in the assay on A549 [17] it was 46%; in the assay with MOLT-4 [18], 46%; in the assay on Jurkat [19] it was 46%; in the assay on HT-29 [20] it was 46%. The “Cell viability relative to control” value with HT-29 [14] came out at 77%.

Usually Ki stands for a measure of affinity in units of concentration, obtained from inhibition or displacement. Consider `Nc1nn2cc(F)cnc2c1C(=O)Nc1cncc(F)c1N1CCC(C(=O)N2CCN(C3COC3)CC2)CC1` [M4344], for which the inhibition constant Ki in [21] was less than 0.2 nM.

Consider `CCN1CCN(C2CCN(Cc3c[nH]c4ncc(-c5ccc(S(=O)(=O)C(C)C)cc5)cc34)CC2)CC1`, for which the outcome in the assay on 1321N1 [1], in the assay with GBM and in the assay on 1321N1 [34] was Active. For the same compound, the Activity in the assay with A549 [2] is 87%; in the assay on MCF7 [3], 46%; in assay [22], 83%; with MOLT-4 [4] it was 87%; in [23], 129%; on ATR/ATRIP (Homo sapiens), 96%. Moreover, the Activity in the assay with MCF7 [5] stood at 87%; in the assay on A2780 [6], 87%; in [24] it was 80%; in assay [25], 97%; in [26], 86%; with Jurkat [7], 87%. Moreover, the Activity stood at 82% in [27]; 87% with PANC-1 [8]; 91% in assay [28]; 46% in the assay on A2780 [10]; 81% in assay [29]; 46% in the assay with SAOS-2 [11]. For the same compound, the Activity in the assay with SAOS-2 [12] worked out at 87%; in assay [30], 108%; with PANC-1 [13] it was 46%; in assay [31], 84%; in the assay with HeLa [15] it was 46%; in the assay with HeLa [16], 87%. The Activity was 88% in assay [32]; 46% in the assay with A549 [17]; 92% in [33]; 46% in the assay on MOLT-4 [18]; 46% in the assay on Jurkat [19]; 46% in the assay on HT-29 [20]. In addition, the “Cell viability relative to control” value in the assay on HT-29 [14] worked out at 87%.
